Results as given in ChEMBL document CHEMBL1201862, “PubChem BioAssay data set” (2004).
Calls of active or inactive are those of the source.

Experiments:
[1] = Dose-response inhibition of insulin secretion in a rat insulinoma line at 5 mM glucose (AID 1117331); format: functional, cell-based; conditions: INS-1E
[2] = target: G-protein coupled receptor 183 (Homo sapiens, UniProt P32249); assay: SAR confirmation of small molecule antagonists of the EBI2 receptor via a luminescent beta-arrestin assa.; format: functional
HEK293 = assay: HEK293T cell cytotoxicity, dose response, cytotoxicity control, ATP luminescence, cherry-pick samples (AID 687005); format: functional, cell-based; conditions: Homo sapiens;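 further: cells exposed to compound for 48 hours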
[3] = HEK293 Cytotoxicity Assay Measured in Cell-Based System Using Plate Reader - 7071-01_Inhibitor_Dose_CherryPick_Activity_Set2.; format: functional
Ephrin type-A receptor 4 = Ephrin type-A receptor 4 (Mus musculus, UniProt Q03137); assay: inhibitors of EphA4 binding to KYL peptide, primary screen, biochemical, colorimetric, mouse EphA4 (AID 689); format: functional
[4] = Luminescence-based cell-based high throughput dose response assay to identify activators of the DAF-12 from the parasite S. stercoralis (ssDAF-12).; format: functional
[5] = target: T1, Oxysterols receptor LXR-beta (Homo sapiens, UniProt P55055); assay: LXR agonists, Gal4 luciferase reporter, dose response, counter-screen for ssDAF-12 agonist project, cell-based, luminescence, HEK293, S. stercoralis campaign (AID 720737); format: functional; conditions: read-out: IC50 (the source's name)
T1 sequence (P55055 whole entry): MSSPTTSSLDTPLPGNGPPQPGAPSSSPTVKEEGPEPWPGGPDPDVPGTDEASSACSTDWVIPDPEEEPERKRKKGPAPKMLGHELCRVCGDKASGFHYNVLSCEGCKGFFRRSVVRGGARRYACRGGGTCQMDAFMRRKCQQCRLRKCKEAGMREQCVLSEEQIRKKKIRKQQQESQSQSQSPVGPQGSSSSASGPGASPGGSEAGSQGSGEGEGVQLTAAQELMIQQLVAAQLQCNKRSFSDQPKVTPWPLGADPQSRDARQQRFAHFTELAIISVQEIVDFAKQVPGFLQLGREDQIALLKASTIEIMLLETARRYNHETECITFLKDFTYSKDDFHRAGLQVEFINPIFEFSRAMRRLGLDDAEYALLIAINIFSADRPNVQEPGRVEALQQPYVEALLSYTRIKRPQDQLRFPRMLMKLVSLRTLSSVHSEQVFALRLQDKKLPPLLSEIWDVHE

[6] = TRPM1 promoter luciferase reporter signal decrease, dose response, MITF inhibitor project, cell-based, SK-MEL-5, dry powder, set 8 (AID 624430); format: functional
[7] = MITF Orthogonal Assay: SK-MEL-5 CTG Assay Measured in Cell-Based System Using Plate Reader - 2084-02_Inhibitor_Dose_DryPowder_Activity_Set7.; format: functional
[8] = MITF: Counter assay: A375 proliferation Measured in Cell-Based System Using Plate Reader - 2084-03_Inhibitor_Dose_DryPowder_Activity_Set8.; format: functional; conditions: A-375
[9] = target: Glutathione-S-transferase (Schistosoma japonicum, UniProt Q26513); assay: biotin-GST/anti-GST TR-FRET signal inhibitors, dose response, artefact control for Vif-APOBEC3G degradation inhibitor project, biochemical (AID 1117362); format: functional
[10] = target: T2, Polyadenylate-binding protein 1 (Homo sapiens, UniProt P11940); assay: PABP1 MLLE–PAM2 binding inhibitor potency, dose response, biochemical, fluorescence polarization, FITC-PAM2 peptide (AID 602259); format: functional; conditions: read-out: IC50_Mean
[11] = target: T2, Polyadenylate-binding protein 1; assay: PABP1 MLLE–PAM2 interaction inhibitors, dose response, miRNA deadenylation inhibitor project, biochemical, fluorescence polarization, Cy5-PAM2 peptide, secondary (AID 602260); format: functional; conditions: read-out: IC50_Mean
[12] = target: T3, Low molecular weight phosphotyrosine protein phosphatase (Homo sapiens, UniProt P24666); format: functional; conditions: read-out: IC50_Mean;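 further: Dose-response confirmation assay measuring inhibition of LMPTP enzyme activity by fluorescence intensity read-out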
T3 sequence (P24666 whole entry): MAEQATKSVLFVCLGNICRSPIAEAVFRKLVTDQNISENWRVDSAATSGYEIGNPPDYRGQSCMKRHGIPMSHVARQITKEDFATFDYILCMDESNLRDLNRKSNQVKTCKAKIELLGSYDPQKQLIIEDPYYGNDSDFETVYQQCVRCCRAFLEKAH

[13] = half-maximal inhibitory concentration for glucagon-like peptide-1 release, STC-1 cell line, dose-response (AID 1117345); format: functional, cell-based
[14] = Glucagon-like peptide 1 release potency, NCI-H716 cell line, dose-response, half-maximal inhibitory concentration (AID 1117344); format: functional, cell-based
[15] = M. tuberculosis H37Rv growth inhibitors, H37Rv strain (AID 1626); format: functional
[16] = cytotoxicity in HEK-293T cells, dose response, cytotoxicity control for BCR NF-kB inhibitor project, luminescence, B-cell screen hits (AID 489021); format: functional, cell-based;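 further: HEK-293T cells carrying an NF-kB luciferase reporter; cells exposed to compound for about 14 hours before viability readout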
[17] = A375 melanoma cell cytotoxicity, dose response, counter-screen for MITF inhibitor project, CellTiter-Glo luminescence, dry powder, set 2 (AID 624489); format: functional, cell-based; conditions: A-375;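 further: actives are compounds lowering A375 viability meaning general cytotoxicity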
[18] = A375 melanoma cell viability loss, dose response, counter-screen for MITF inhibitor project, CellTiter-Glo luminescence, dry powder, set 4 (AID 624364); format: functional, cell-based; conditions: A-375;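 further: A375 melanoma cells are MITF independent so this is a counter screen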
[19] = cytotoxicity in COV434 cells, dose response, cytotoxicity control for PAX8 inhibitor project, cell-based, plate reader, dry powder, SA7 (AID 743145); format: functional
[20] = cytotoxicity in OV-90 ovarian cancer cells, dose response, PAX8 inhibitor project, cell-based, plate reader, dry powder, SA8 (AID 743149); format: functional
[21] = NIH:OVCAR-3 ovarian cancer cell cytotoxicity, dose response, PAX8 inhibitor project, plate reader, dry powder samples (AID 743044); format: functional, cell-based
[22] = IGROV1 ovarian cancer cell cytotoxicity, dose response, PAX8 inhibitor project, plate reader, dry powder samples (AID 743043); format: functional, cell-based; conditions: IGROV-1
[23] = cytotoxicity dependent on PAX8, dose response, cell-based, plate reader, dry powder (AID 743049); format: functional
Paired box protein Pax-8 = Paired box protein Pax-8 (Homo sapiens, UniProt Q06710); assay: inhibitors of PAX8-driven TPO luciferase reporter, dose response, RMG-I cells, cherry-pick (AID 687027); format: functional, cell-based;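 further: luciferase reporter driven by Pax8 target thyroperoxidase promoter measured by SteadyGlo luminescence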
[24] = PAX5 activity inhibitors, dose response, selectivity assay for PAX8 inhibitor project, cell-based, plate reader, dry powder samples (AID 743047); format: functional;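 further: HEK293 cells carrying a Pax5 driven CD19 promoter luciferase reporter; potency of inhibitors that lower reporter luminescence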
[25] = PAX2 cell-based inhibition, dose response, selectivity assay for PAX8 inhibitor project, plate reader, dry powder samples (AID 743048); format: functional;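 further: HEK293 cells carrying a WT1 promoter luciferase reporter driven by expressed Pax2; potency is for inhibition of Pax2 driven reporter signal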
Bcl-2-related protein A1 [26] = target: T4, Bcl-2-related protein A1 (Mus musculus, UniProt Q07440); assay: Bfl-1 inhibitors blocking BH3 peptide binding, confirmation, biochemical, TR-FRET, mouse Bfl-1 (AID 621);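 further: TR-FRET binding of GST-Bfl-1 to FITC-labelled Bid peptide via terbium antibody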
T4 sequence (Q07440 whole entry): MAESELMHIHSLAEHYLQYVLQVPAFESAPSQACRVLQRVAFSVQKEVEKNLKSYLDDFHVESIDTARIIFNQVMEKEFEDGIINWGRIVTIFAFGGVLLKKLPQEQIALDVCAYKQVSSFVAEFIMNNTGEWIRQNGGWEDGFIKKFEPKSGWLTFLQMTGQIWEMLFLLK

[27] = target: Glyceraldehyde-3-phosphate dehydrogenase (Homo sapiens, UniProt P04406)
Bcl-2-related protein A1 [28] = target: T4, Bcl-2-related protein A1; assay: Bfl-1 binding inhibitors, SAR follow-up, biochemical, fluorescence polarization (AID 1070)
[29] = target: T5, Dual specificity protein phosphatase 6 (Rattus norvegicus, UniProt Q64346); assay: MKP-3 phosphatase inhibitors, primary screen, biochemical, rat enzyme, in vitro (AID 425)
T5 sequence (Q64346 whole entry): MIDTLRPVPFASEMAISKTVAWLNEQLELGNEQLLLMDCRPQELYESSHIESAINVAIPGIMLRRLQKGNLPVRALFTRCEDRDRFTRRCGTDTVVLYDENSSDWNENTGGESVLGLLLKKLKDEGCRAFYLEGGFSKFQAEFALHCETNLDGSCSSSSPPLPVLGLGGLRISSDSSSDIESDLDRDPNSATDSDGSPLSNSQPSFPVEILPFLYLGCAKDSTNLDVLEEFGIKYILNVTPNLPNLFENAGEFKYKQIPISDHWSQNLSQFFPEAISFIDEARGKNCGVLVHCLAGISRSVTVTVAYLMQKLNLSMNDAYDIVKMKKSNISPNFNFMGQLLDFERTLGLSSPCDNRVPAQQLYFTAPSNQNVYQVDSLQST

[30] = ADAM10 protease inhibitors, dose response, selectivity assay for ADAM17 exosite inhibitor project, biochemical, FRET peptide substrate, recombinant human ADAM10 (AID 743259);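 further: ADAM10 enzyme cleaving a FRET peptide substrate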
[31] = target: Disintegrin and metalloproteinase domain-containing protein 17 (Homo sapiens, UniProt P78536); assay: exosite inhibitors of ADAM17, dose response, biochemical (AID 743260)
[32] = CellTiter-Glo luminescent dose response of DLD-1 viability loss (AID 1117352); format: functional
[33] = SNU-C1 cell viability reduction, dose response, CellTiter-Glo luminescence (AID 1117323); format: functional, cell-based
[34] = Concentration-dependent survival of SW480 colon cancer line, luminescence detection with CellTiter-Glo, half-maximal inhibitory concentration (AID 1117338); format: functional
[35] = cytotoxicity toward HCT116 cells – cell-based, CellTiter-Glo luminescence, IC50, dose response (AID 1117332); format: functional; conditions: HCT-116
[36] = cytotoxicity toward HT-29 cells – cell-based, CellTiter-Glo luminescence, IC50, dose response (AID 1117330); format: functional

T2 sequence (P11940 whole entry): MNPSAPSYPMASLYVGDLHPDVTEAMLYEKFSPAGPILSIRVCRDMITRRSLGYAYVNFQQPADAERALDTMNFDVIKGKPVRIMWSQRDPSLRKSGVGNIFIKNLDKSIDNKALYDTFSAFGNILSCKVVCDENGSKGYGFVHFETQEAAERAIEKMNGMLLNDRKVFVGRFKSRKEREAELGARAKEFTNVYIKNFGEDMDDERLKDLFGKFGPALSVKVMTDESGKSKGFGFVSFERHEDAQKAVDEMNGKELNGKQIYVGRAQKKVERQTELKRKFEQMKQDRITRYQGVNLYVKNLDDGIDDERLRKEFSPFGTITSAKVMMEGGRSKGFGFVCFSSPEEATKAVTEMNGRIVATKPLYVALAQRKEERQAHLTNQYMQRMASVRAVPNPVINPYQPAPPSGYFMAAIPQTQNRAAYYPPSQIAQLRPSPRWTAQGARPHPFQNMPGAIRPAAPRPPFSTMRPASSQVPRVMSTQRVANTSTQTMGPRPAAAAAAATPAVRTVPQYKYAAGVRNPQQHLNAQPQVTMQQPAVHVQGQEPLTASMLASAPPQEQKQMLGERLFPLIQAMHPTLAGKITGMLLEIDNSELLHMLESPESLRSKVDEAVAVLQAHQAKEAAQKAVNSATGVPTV
Chain of G-protein coupled receptor 183 (P32249 whole entry): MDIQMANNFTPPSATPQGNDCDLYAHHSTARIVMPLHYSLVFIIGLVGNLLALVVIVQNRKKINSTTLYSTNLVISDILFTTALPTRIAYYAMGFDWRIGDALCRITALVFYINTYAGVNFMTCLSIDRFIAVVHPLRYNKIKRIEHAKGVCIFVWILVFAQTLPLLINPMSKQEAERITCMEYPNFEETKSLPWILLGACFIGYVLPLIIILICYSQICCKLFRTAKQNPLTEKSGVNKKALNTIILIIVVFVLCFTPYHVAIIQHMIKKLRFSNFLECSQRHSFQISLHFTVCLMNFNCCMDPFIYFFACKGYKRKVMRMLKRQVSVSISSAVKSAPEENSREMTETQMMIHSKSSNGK
Chain of Disintegrin and metalloproteinase domain-containing protein 17 (P78536 whole entry, the tested form may be a part): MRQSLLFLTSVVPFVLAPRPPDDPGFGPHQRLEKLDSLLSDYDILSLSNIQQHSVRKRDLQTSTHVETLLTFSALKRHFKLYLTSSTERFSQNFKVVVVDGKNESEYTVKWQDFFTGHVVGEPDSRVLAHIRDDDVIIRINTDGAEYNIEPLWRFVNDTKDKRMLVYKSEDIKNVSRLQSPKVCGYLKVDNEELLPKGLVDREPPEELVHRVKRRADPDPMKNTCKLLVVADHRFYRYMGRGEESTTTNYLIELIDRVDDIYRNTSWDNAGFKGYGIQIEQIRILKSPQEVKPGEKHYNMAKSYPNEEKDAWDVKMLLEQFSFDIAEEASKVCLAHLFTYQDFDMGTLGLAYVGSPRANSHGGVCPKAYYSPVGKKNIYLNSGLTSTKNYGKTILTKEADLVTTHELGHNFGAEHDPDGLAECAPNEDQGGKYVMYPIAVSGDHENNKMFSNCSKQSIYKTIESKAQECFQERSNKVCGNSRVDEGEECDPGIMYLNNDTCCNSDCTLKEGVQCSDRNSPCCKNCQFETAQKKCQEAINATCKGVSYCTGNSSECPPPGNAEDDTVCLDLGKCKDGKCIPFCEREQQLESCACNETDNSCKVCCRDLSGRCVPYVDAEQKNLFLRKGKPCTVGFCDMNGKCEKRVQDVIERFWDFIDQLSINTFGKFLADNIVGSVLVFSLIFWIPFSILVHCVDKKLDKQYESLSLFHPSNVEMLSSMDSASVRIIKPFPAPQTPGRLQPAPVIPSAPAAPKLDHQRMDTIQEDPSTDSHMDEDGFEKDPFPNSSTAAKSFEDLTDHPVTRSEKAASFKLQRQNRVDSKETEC
Chain of Ephrin type-A receptor 4 (Q03137 whole entry): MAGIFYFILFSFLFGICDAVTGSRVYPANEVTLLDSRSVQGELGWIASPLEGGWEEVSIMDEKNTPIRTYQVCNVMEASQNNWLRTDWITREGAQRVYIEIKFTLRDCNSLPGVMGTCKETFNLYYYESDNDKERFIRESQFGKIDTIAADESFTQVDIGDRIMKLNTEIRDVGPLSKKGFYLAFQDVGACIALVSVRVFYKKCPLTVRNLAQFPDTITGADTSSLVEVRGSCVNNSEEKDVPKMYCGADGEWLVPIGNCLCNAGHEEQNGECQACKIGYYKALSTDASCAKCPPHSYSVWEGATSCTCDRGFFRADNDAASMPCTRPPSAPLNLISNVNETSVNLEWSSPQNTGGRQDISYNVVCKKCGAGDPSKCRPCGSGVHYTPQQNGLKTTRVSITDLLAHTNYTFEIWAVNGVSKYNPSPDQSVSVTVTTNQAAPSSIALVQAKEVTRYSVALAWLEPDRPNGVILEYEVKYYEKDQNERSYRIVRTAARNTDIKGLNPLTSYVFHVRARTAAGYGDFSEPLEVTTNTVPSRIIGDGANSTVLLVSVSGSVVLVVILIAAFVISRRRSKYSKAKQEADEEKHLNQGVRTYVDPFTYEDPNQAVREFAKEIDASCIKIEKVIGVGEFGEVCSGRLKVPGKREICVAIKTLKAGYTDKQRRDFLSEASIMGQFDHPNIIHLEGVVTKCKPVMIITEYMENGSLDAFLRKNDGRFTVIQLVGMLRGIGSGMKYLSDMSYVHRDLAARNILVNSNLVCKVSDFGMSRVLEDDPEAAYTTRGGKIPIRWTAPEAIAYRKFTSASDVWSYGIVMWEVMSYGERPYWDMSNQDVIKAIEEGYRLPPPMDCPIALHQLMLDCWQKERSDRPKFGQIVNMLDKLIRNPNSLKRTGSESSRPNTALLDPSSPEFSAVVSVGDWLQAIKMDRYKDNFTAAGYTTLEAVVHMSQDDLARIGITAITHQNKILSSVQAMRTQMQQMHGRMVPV
Chain of Paired box protein Pax-8 (Q06710 whole entry): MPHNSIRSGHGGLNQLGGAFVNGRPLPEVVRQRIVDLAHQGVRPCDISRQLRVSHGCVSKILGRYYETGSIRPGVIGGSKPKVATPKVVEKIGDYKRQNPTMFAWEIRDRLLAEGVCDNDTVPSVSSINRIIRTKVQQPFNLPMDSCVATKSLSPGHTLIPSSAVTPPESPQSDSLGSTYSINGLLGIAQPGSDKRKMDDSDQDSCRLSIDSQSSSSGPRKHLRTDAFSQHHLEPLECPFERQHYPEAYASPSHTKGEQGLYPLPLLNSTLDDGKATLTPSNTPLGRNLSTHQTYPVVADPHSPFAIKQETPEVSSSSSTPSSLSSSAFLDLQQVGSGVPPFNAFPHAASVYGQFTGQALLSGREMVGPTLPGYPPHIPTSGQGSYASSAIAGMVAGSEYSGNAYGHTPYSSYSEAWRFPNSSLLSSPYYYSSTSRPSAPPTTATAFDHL
Chain of Glyceraldehyde-3-phosphate dehydrogenase (P04406 whole entry): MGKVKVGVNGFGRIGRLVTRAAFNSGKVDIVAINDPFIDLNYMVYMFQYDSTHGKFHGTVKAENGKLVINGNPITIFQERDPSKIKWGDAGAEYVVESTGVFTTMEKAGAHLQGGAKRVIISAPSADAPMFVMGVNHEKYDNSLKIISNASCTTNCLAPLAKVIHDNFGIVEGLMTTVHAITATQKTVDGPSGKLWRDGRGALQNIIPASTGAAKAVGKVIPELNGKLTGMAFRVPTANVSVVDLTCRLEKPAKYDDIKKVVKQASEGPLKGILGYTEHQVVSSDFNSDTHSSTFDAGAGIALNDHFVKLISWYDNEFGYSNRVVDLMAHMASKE
Chain of Glutathione-S-transferase (Q26513 whole entry): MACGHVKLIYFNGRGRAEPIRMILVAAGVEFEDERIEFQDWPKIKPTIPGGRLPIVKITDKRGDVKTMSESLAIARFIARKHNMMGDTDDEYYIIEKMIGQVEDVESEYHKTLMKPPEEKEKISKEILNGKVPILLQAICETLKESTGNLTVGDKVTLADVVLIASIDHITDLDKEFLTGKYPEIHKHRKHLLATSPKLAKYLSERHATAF

CCC(CN)=C(c1ccccc1)c1ccccc1
IC50 [1]: 10.8 µM (inactive)

O=C(/C=C/c1ccc(F)cc1)N1CCN(S(=O)(=O)c2cccc(Cl)c2)CC1
IC50 [2]: 0.0115 µM (active)

C[C@@H]1CCCCO[C@H](CN(C)Cc2ccccc2)[C@H](C)CN([C@@H](C)CO)C(=O)c2cc(NS(=O)(=O)c3cccs3)ccc2O1
AC50 (HEK293): 30.9 µM (active) | AC50 [3]: 30.9 µM (active)

Cc1ccsc1/C=C/C1=Cc2c(sc(NC(=O)CSc3nnc(N)[nH]3)c2C#N)C(C)(C)C1
IC50 (Ephrin type-A receptor 4): 3.15 µM (active)

O=C(COn1nnc2ccc(C(F)(F)F)cc21)Nc1c(Cl)cccc1Cl
IC50 [4]: > 67.6 µM (inactive) | EC50 [5]: > 67.6 µM (inactive)

O=C1C(Nc2ccc(Cl)cc2)=C(N2CCCCC2)C(=O)c2ccccc21
AC50 [6]: 2.87 µM (active) | AC50 [7]: 4.38 µM (active) | AC50 [8]: 26.8 µM (active)

CN=c1cccccc1S
IC50 [9]: > 100 µM (active) | IC50 [10]: > 66 µM (inactive) | IC50 [11]: > 66 µM (inactive) | IC50 [12]: 49 µM (inactive)

CCCN1C(=O)/C(=C/C=C2\N(CC)c3ccccc3C2(C)C)SC1=S
IC50 (Ephrin type-A receptor 4): 5.08 µM (active)

O=C(/C=C/c1ccccc1F)N1CCN(S(=O)(=O)c2ccc(Br)cc2)CC1
IC50 [2]: 0.252 µM (active)

Cc1cc(OI)c(C(C)C)cc1-c1cc(C(C)C)c(OI)cc1C [THYMOL IODIDE]
IC50 [1]: > 33.3 µM (inactive) | IC50 [13]: 15.1 µM (inactive) | IC50 [14]: > 40 µM (inactive)

CCCCCCCCCCCC[N+](C)(C)CCOc1ccccc1 [DOMIPHEN BROMIDE]
IC50 [13]: > 40 µM (inactive) | IC50 [14]: 16.2 µM (inactive)

Nc1ccccc1SCC(=O)Nc1nc(-c2ccccc2)cs1
IC50 [15]: > 100 µM (active) | IC50 [16]: > 80 µM (inactive)

O=C(Nc1cccc(F)c1)N[C@H]1CC[C@H](CCNS(=O)(=O)c2cccc(Cl)c2)O[C@@H]1CO
AC50 (HEK293): 26 µM (active) | AC50 [3]: 26 µM (active)

O=C1c2ccccc2C(=O)N1CC(O)CN1CCOCC1 (stereo unspecified)
IC50 [4]: > 67.5 µM (inactive) | EC50 [5]: > 67.5 µM (inactive)

O=C1C(Nc2cccc(Br)c2)=C(N2CCCC2)C(=O)c2ccccc21
AC50 [6]: 13.1 µM (active) | AC50 [7]: 11.8 µM (active) | AC50 [8]: > 70 µM (inactive)

CN1CCN(C2=C(NC(=O)c3ccc(Br)cc3)C(=O)c3ccccc3C2=O)CC1
AC50 [17]: 8.99 µM (active) | AC50 [18]: 23.5 µM (active)

CCc1ccc(/C=C2\SC(=S)N(CCCC(=O)N(CCO)c3ccccc3)C2=O)cc1
AC50 [19]: 8.05 µM (active) | AC50 [20]: 35.1 µM (active) | AC50 [21]: 29.1 µM (active) | AC50 [22]: 9.33 µM (active) | AC50 [23]: 15.1 µM (active) | AC50 (Paired box protein Pax-8): 7.65 µM (active) | AC50 [24]: 33 µM (active) | AC50 [25]: 31.9 µM (active)

NC1=C(c2ccccc2)C(=O)c2ccccc2C1=O
AC50 [17]: > 70 µM (inactive) | AC50 [18]: > 70 µM (inactive)

CCN1CCN(C2=C(Cl)C(=O)N(c3ccc(Cl)nc3)C2=O)CC1
IC50 (Bcl-2-related protein A1 [26]): 20.8 µM (active) | IC50 [27]: > 100 µM (not active) | IC50 (Bcl-2-related protein A1 [28]): 15 µM (active)

C[C@H]1C[C@H]2[C@@H]3CCC4=CC(=O)C=C[C@]4(C)[C@@]3(Cl)[C@@H](O)C[C@]2(C)[C@@]1(O)C(=O)CO [BECLOMETHASONE]
IC50 [29]: > 100 µM (not active)

COC(=O)[C@H](CC(C)C)N(CCc1cn(Cc2ccccc2)nn1)S(=O)(=O)c1ccccc1Br
IC50 [30]: > 69.5 µM (inactive) | IC50 [31]: > 69.5 µM (inactive)

CCCC(=O)C1=C(NCCc2c(C)[nH]c3ccc(C)cc23)CCCC1=O
IC50 [15]: > 100 µM (active)

O=C(NCC1COc2ccccc2O1)c1cccc(S(=O)(=O)N2CCN(c3ccccc3)CC2)c1 (stereo unspecified)
IC50 [30]: > 69.5 µM (inactive) | IC50 [31]: > 69.5 µM (inactive)

CC(C(=O)O)c1cccc(C(=O)c2ccccc2)c1 (stereo unspecified) [KETOPROFEN]
IC50 [32]: 8.64 µM (inactive) | IC50 [33]: 3.8 µM (active) | IC50 [34]: 10.3 µM (inactive) | IC50 [35]: 10.5 µM (inactive) | IC50 [36]: 14.4 µM (inactive)
